The subject of data set [1] is downmodulation of MHC-I molecules expressed on the surface of HIV infected SupT1 cells. The experiment in a line: cells. To be noted: for EC50: Human immunodeficiency virus 1, SUP-T1, read-out: EC50 for inhibition of MHC-I downmodulation utilizing the R1 parameter; for activity at 100 µM: Human immunodeficiency virus 1, SUP-T1, read-out: R1 @ 100 μM (R1 value for MHC-I downmodulation as % of the vehicle control).

Data set [2] in a line: in vitro. To be noted: human, uninfected SupT1 cells.

For orientation: EC50 means the concentration needed to bring the measured effect to its halfway point. The CC50 is the concentration giving 50% cytotoxicity. Consider `Cc1csc(N(C(=O)COc2cccc3c2OC(C)(C)C3)c2cccnc2)n1` [Compound 65, 2-((2,2-Dimethyl-2,3-dihydrobenzofuran-7-yl)oxy)-N-(4-methylthiazol-2-yl)-N-(pyridin-3-yl)acetamide], for which, in data set [1], the EC50 was 0.88 µM. The compound also registered a CC50 at 48 h in data set [2] of more than 125 µM.
`CC1(C)Cc2cccc(OCC(=O)Nc3nc(C(=O)N4CCCCC4)cs3)c2O1` [Compound 151, 2-((2,2-Dimethyl-2,3-dihydrobenzofuran-7-yl)oxy)-N-(4-(piperidine-1-carbonyl)thiazol-2-yl)acetamide]: in data set [1], the concentration giving a half-maximal response (EC50) was more than 25 µM and the activity at 100 µM stood at 51%. In data set [2], the CC50 is more than 90 µM and the CC50 at 48 h was more than 90 µM.
Turning to `Cc1ccc(N(Cc2ccccn2)C(=O)COc2cccc3c2OC(C)(C)C3)nc1` [Compound 48, 2-((2,2-Dimethyl-2,3-dihydrobenzofuran-7-yl)oxy)-N-(5-methylpyridin-2-yl)-N-(pyridin-2-ylmethyl)acetamide], the EC50 in data set [1] worked out at 21 µM. The compound further gave a CC50 at 48 h in data set [2] of more than 100 µM.
In the case of `Cc1nc(N(Cc2ccccc2)C(=O)COc2cccc3c2OC(C)(C)C3)sc1C` [Compound 31, N-Benzyl-2-((2,2-dimethyl-2,3-dihydrobenzofuran-7-yl)oxy)-N-(4,5-dimethylthiazol-2-yl)acetamide], the EC50 in data set [1] amounted to 0.21 µM. For the same compound, the CC50 at 48 h in data set [2] was more than 100 µM.
The corresponding values for `C=Cc1ccc(NC(=O)COc2cccc3c2OC(C)(C)C3)nn1` [Compound 84, 2-((2,2-Dimethyl-2,3-dihydrobenzofuran-7-yl)oxy)-N-(6-vinylpyridazin-3-yl)acetamide] are 0.89 µM and more than 100 µM.
The corresponding values for `Cc1ncccc1OCC(=O)N(C)c1nc2c(s1)CCCC2` [Compound 137, N-Methyl-2-((2-methylpyridin-3-yl)oxy)-N-(4,5,6,7-tetrahydrobenzo[d]thiazol-2-yl)acetamide] are more than 25 µM and 12 µM.
The matching figures for `COc1ccccc1N(C(=O)COc1cccc2c1OC(C)(C)C2)c1nc(C)cs1` [Compound 55, 2-((2,2-Dimethyl-2,3-dihydrobenzofuran-7-yl)oxy)-N-(2-methoxyphenyl)-N-(4-methylthiazol-2-yl)acetamide]: 0.21 µM and more than 125 µM.
Consider `CC1(C)Cc2cccc(OCC(=O)Nc3nc4cc(F)ccc4s3)c2O1` [Compound 148, 2-((2,2-Dimethyl-2,3-dihydrobenzofuran-7-yl)oxy)-N-(5-fluorobenzo[d]thiazol-2-yl)acetamide], for which the EC50 in data set [1] came out at 2 µM. For the same compound, in data set [2], the half-maximal cytotoxic concentration (CC50) at 48 h is more than 100 µM.
The corresponding values for `Cc1csc(N(C(=O)COc2cccc3c2OC(C)(C)C3)c2ccccc2Cl)n1` [Compound 61, N-(2-Chlorophenyl)-2-((2,2-dimethyl-2,3-dihydrobenzofuran-7-yl)oxy)-N-(4-methylthiazol-2-yl)acetamide] are 2.17 µM and more than 100 µM.
The corresponding values for `Cc1nc(NC(=O)COc2cccc3c2OC(C)(C)C3)sc1C` [Compound 185, 2-((2,2-Dimethyl-2,3-dihydrobenzofuran-7-yl)oxy)-N-(4,5-dimethylthiazol-2-yl)acetamide] are 0.2 µM and more than 90 µM.
The corresponding values for `CC1(C)Cc2cccc(OCC(=O)N(Cc3ccccn3)c3nc4c(F)cccc4s3)c2O1` [Compound 45, 2-((2,2-Dimethyl-2,3-dihydrobenzofuran-7-yl)oxy)-N-(4-fluorobenzo[d]thiazol-2-yl)-N-(pyridin-2-ylmethyl)acetamide] are 0.51 µM and more than 100 µM.
`Cc1cccc(NC(=O)COc2cccc3c2OC(C)(C)C3)n1` [Compound 8, 2-((2,2-Dimethyl-2,3-dihydrobenzofuran-7-yl)oxy)-N-(6-methylpyridin-2-yl) acetamide]: in data set [1], the EC50 stood at 23 µM. In addition, the CC50 at 48 h in data set [2] was more than 100 µM.
Turning to `CC1(C)Cc2cccc(CCC(=O)Nc3nc4c(F)cccc4s3)c2O1` [Compound 107, 3-(2,2-Dimethyl-2,3-dihydrobenzofuran-7-yl)-N-(4-fluorobenzo[d]thiazol-2-yl)propanamide], the EC50 in data set [1] was found to be 0.37 µM. The CC50 at 48 h in data set [2] was more than 100 µM.
Take `Cc1csc(N(C(=O)COc2cccc3c2OC(C)(C)C3)c2cncnc2)n1` [Compound 97, 2-((2,2-Dimethyl-2,3-dihydrobenzofuran-7-yl)oxy)-N-(4-methylthiazol-2-yl)-N-(pyrimidin-5-yl)acetamide]: in data set [1], the EC50 is more than 25 µM and the activity at 100 µM was 5.4%. In addition, in data set [2], the CC50 is more than 125 µM and the CC50 at 48 h was more than 125 µM.
Regarding `CN(C(=O)COc1cccc2c1OC(C)(C)C2)c1nc2ccccc2s1` [Compound 144, N-(benzo[d]thiazol-2-yl)-2-((2,2-dimethyl-2,3-dihydrobenzofuran-7-yl)oxy)-N-methylacetamide], the EC50 in data set [1] is 29 µM. In data set [2], the CC50 at 48 h is more than 90 µM.
The matching figures for `COc1cccc(OC)c1OCC(=O)N(C)c1nc2c(s1)CCCC2` [Compound 131, 2-(2,6-Dimethoxyphenoxy)-N-methyl-N-(4,5,6,7-tetrahydrobenzo[d]thiazol-2-yl)acetamide]: 2.6 µM and approximately 125 µM.
The corresponding values for `CCc1ccc(N(C)C(=O)COc2cccc3c2OC(C)(C)C3)nc1` [Compound 80, 2-((2,2-Dimethyl-2,3-dihydrobenzofuran-7-yl)oxy)-N-(5-ethylpyridin-2-yl)-N-methylacetamide] are 4.6 µM and more than 125 µM.
The corresponding values for `CC1(C)Cc2cccc(OCC(=O)Nc3ccc(C#N)cn3)c2O1` [Compound 22, N-(5-Cyanopyridin-2-yl)-2-((2,2-dimethyl-2,3-dihydrobenzofuran-7-yl)oxy) acetamide] are 25 µM and more than 100 µM.
On to `Cn1ccnc1CN(C(=O)COc1cccc2c1OC(C)(C)C2)c1nc2c(s1)CCCC2` [Compound 46, 2-((2,2-Dimethyl-2,3-dihydrobenzofuran-7-yl)oxy)-N-((1-methyl-1H-imidazol-2-yl)methyl)-N-(4,5,6,7-tetrahydrobenzo[d]thiazol-2-yl)acetamide], for which, in data set [1], the EC50 stood at 0.059 µM. Also, the CC50 at 48 h in data set [2] is more than 125 µM.
The matching figures for `Cc1ccnc(CN(C(=O)COc2cccc3c2OC(C)(C)C3)c2nc3c(s2)CCCC3)c1` [Compound 41, 2-((2,2-Dimethyl-2,3-dihydrobenzofuran-7-yl)oxy)-N-((4-methylpyridin-2-yl)methyl)-N-(4,5,6,7-tetrahydrobenzo[d]thiazol-2-yl)acetamide]: 0.02 µM and more than 125 µM.
For `Cc1csc(N(Cc2ccccc2)C(=O)COc2cccc3c2OC(C)(C)C3)n1` [Compound 159, N-Benzyl-2-((2,2-dimethyl-2,3-dihydrobenzofuran-7-yl)oxy)-N-(4-methylthiazol-2-yl)acetamide], the EC50 in data set [1] was 0.18 µM. This compound registered a CC50 at 48 h in data set [2] of more than 90 µM.
Take `CC1(C)Cc2cccc(OCC(=O)Nc3nc(C(=O)N4CCCC4)cs3)c2O1` [Compound 150, 2-((2,2-dimethyl-2,3-dihydrobenzofuran-7-yl)oxy)-N-(4-(pyrrolidine-1-carbonyl)thiazol-2-yl)acetamide]: in data set [1], the EC50 is more than 25 µM and the activity at 100 µM stood at 47%. In data set [2], this compound showed a CC50 of more than 90 µM and a CC50 at 48 h of more than 90 µM.
Regarding `CCc1cccc(NC(=O)COc2cccc3c2OC(C)(C)C3)n1` [Compound 158, 2-((2,2-Dimethyl-2,3-dihydrobenzofuran-7-yl)oxy)-N-(6-ethylpyridin-2-yl) acetamide], the EC50 in data set [1] is 13 µM. In addition, in data set [2], the CC50 at 48 h is more than 125 µM.
The corresponding values for `Cc1csc(NC(=O)COc2cccc3cc[nH]c23)n1` [Compound 134, 2-((1H-Indol-7-yl)oxy)-N-(4-methylthiazol-2-yl)acetamide] are 11 µM and more than 100 µM.
The corresponding values for `Cc1cccc(CN(C(=O)COc2cccc3c2OC(C)(C)C3)c2nc3c(s2)CCCC3)n1` [Compound 39, 2-((2,2-Dimethyl-2,3-dihydrobenzofuran-7-yl)oxy)-N-((6-methylpyridin-2-yl)methyl)-N-(4,5,6,7-tetrahydrobenzo[d]thiazol-2-yl)acetamide] are 0.02 µM and more than 100 µM.
For `Cc1ccncc1OCC(=O)N(C)c1nc2c(s1)CCCC2` [Compound 138, N-Methyl-2-((4-methylpyridin-3-yl)oxy)-N-(4,5,6,7-tetrahydrobenzo[d]thiazol-2-yl)acetamide], the EC50 in data set [1] was more than 25 µM. In data set [2], this compound gave a CC50 at 48 h of more than 125 µM.
For `CC1(C)Cc2cccc(OCC(=O)Nc3nc(C(=O)NCc4ccco4)cs3)c2O1` [Compound 154, 2-(2-((2,2-Dimethyl-2,3-dihydrobenzofuran-7-yl)oxy)acetamido)-N-(furan-2-ylmethyl)thiazole-4-carboxamide], in data set [1], the EC50 is more than 25 µM and the activity at 100 µM is 44%. In data set [2], this compound registered a CC50 of more than 100 µM and a CC50 at 48 h of more than 100 µM.
Turning to `Cc1cnc(NC(=O)COc2cccc3c2OC(C)(C)C3)cc1C` [Compound 77, 2-((2,2-Dimethyl-2,3-dihydrobenzofuran-7-yl)oxy)-N-(4,5-dimethylpyridin-2-yl)acetamide], in data set [1], the EC50 was more than 25 µM and the activity at 100 µM is 21%. In data set [2], the 50% cytotoxic concentration (CC50) is more than 125 µM and the CC50 at 48 h was more than 125 µM.
For the compound `CN(C(=O)COc1cccc2c1OC(C)(C)C2)c1ccc(Br)cn1` [Compound 78, N-(5-Bromopyridin-2-yl)-2-((2,2-dimethyl-2,3-dihydrobenzofuran-7-yl)oxy)-N-methylacetamide], the EC50 in data set [1] amounted to 17 µM. Further, the CC50 at 48 h in data set [2] is more than 125 µM.
In the case of `Cc1cnc(NC(=O)COc2cccc3c2OC(C)(C)C3)s1` [Compound 182, 2-((2,2-Dimethyl-2,3-dihydrobenzofuran-7-yl)oxy)-N-(5-methylthiazol-2-yl) acetamide], in data set [1], the EC50 was 0.37 µM. Besides, the CC50 at 48 h in data set [2] came out at 69 µM.

These data come from patent US20220411419A1, “SMALL MOLECULE MODULATORS OF MHC-I” (RetroVirox, Inc., priority 2018, published 2022).
